Columns and labels:
[1] = Displacement of casein from calpain 1 in porcine erythrocytes; assay type: cell-based, Sus scrofa
Calpain small subunit 1 [2] = target: T1, Calpain small subunit 1 (Sus scrofa, UniProt P04574); test: Ability to displace labelledcasein from calpain I in porcine erythrocytes; Noninhibitor; assay type: cell-based
T1 sequence (P04574 whole entry): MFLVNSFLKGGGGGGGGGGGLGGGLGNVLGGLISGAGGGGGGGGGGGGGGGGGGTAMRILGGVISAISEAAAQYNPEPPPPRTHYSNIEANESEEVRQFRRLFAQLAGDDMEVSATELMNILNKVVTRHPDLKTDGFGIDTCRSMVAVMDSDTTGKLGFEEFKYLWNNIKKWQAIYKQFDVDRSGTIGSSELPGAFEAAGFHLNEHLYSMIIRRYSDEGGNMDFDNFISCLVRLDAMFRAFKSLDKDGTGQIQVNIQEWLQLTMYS

Calpain small subunit 1 [3] = target: T1, Calpain small subunit 1; test: Ability to displace labelledcasein from calpain I in porcine erythrocytes; Weak inhibitor; assay type: cell-based

## COC(=O)[C@@H](NC(=O)[C@H](Cc1ccccc1)NC(=O)c1ccccc1-c1ccccc1C(=O)N[C@@H](Cc1ccccc1)C(=O)Nc1ccccc1-c1ccccc1NC(=O)[C@H](C)NC(=O)OCC1c2ccccc2-c2ccccc21)C(C)C
[1]
  IC50: 41 µM

## COC(=O)[C@H](Cc1ccccc1)NC(=O)c1ccccc1-c1ccccc1C(=O)O
Calpain small subunit 1 [2]
  IC50: No inhibition

## O=C(N[C@@H](Cc1ccc(O)cc1)C(=O)O)c1ccccc1-c1ccccc1C(=O)N[C@@H](Cc1ccc(O)cc1)C(=O)O
[1]
  IC50: 200 µM

## C=CCO[C@H]1O[C@H](CNC(=O)c2ccccc2-c2ccccc2C(=O)N[C@@H](Cc2ccc(O)cc2)C(=O)OC)C=C[C@@H]1CC(=O)N[C@@H](Cc1ccccc1)C(=O)N[C@@H](CC(C)C)C(=O)NC
[1]
  IC50: 116 µM

## COC(=O)[C@H](Cc1ccccc1)NC(=O)c1ccccc1-c1ccccc1C(=O)N[C@@H](Cc1ccccc1)C(=O)OC
[1]
  IC50: 0.064 µM

## COC(=O)[C@H](Cc1ccccc1)NC(=O)[C@H](Cc1ccccc1)NC(=O)c1ccccc1-c1ccccc1C(=O)N[C@@H](Cc1ccccc1)C(=O)N[C@@H](Cc1ccccc1)C(=O)OC
[1]
  IC50: 0.098 µM

## COC(=O)[C@H](Cc1ccc(O)cc1)NC(=O)c1ccccc1-c1ccccc1C(=O)N[C@@H](Cc1ccc(O)cc1)C(=O)OC
Calpain small subunit 1 [2]
  IC50: No inhibition

## CNC(=O)[C@@H](Cc1ccccc1)NC(=O)[C@H](Cc1ccccc1)NC(=O)c1ccccc1-c1ccccc1C(=O)N[C@@H](CC(C)C)C(=O)N[C@@H](CCSC)C(=O)OC
Calpain small subunit 1 [3]
  IC50: Weak inhibitor

## COC(=O)[C@H](Cc1ccccc1)NC(=O)[C@H](CCSC)NC(=O)c1ccccc1-c1ccccc1C(=O)N[C@@H](CCSC)C(=O)N[C@@H](Cc1c[nH]c2ccccc12)C(=O)OC
[1]
  IC50: 77 µM

## COC(=O)[C@H](Cc1c[nH]cn1)NC(=O)c1ccccc1-c1ccccc1C(=O)N[C@@H](Cc1c[nH]cn1)C(=O)OC
Calpain small subunit 1 [2]
  IC50: No inhibition

## CCC(C)[C@H](NC(=O)c1ccccc1-c1ccccc1C(=O)N[C@H](C(=O)OC)C(C)CC)C(=O)OC (some centres not stated)
Calpain small subunit 1 [2]
  IC50: No inhibition

## COC(=O)[C@@H](NC(=O)c1ccccc1-c1ccccc1C(=O)N[C@H](C(=O)OC)C(C)C)C(C)C
[1]
  IC50: 7 µM

## COC(=O)[C@H](C)NC(=O)c1ccccc1-c1ccccc1C(=O)N[C@@H](C)C(=O)OC
Calpain small subunit 1 [2]
  IC50: No inhibition

## COC(=O)[C@H](Cc1ccccc1)NC(=O)[C@@H](NC(=O)c1ccccc1-c1ccccc1C(=O)N[C@H](C(=O)N[C@@H](Cc1ccccc1)C(=O)OC)C(C)C)C(C)C
[1]
  IC50: 0.024 µM

## COC(=O)[C@H](Cc1ccc(O)cc1)NC(=O)c1ccccc1-c1ccccc1C(=O)N[C@@H](Cc1ccccc1)C(=O)N[C@@H](CCSC)C(=O)OC
Calpain small subunit 1 [3]
  IC50: Weak inhibitor

## COC(=O)[C@H](Cc1c[nH]c2ccccc12)NC(=O)c1ccccc1-c1ccccc1C(=O)N[C@@H](Cc1c[nH]c2ccccc12)C(=O)OC
[1]
  IC50: 0.037 µM

## O=C(N[C@@H](Cc1ccccc1)C(=O)O)c1ccccc1-c1ccccc1C(=O)N[C@@H](Cc1ccccc1)C(=O)O
[1]
  IC50: 0.07 µM
